Test results from PubChem BioAssay AID330 (DTP/NCI, 2004).
Several values for one entry are separate records, joined by “and”; a condition that tells them apart may be missing. Equal entries are not always repeated. Inconclusive results and toxic doses are left out. How the source made its calls: active means survival T/C of 150% or more; inactive means T/C below 125% in these data.

System: P388 leukemia ip, CD2F1 mice, survival T/C
Test: NCI In Vivo Anticancer Drug Screen. Data for tumor model P388 Leukemia (intraperitoneal) in CD2F1 (CDF1) mice
Conditions: endpoint: median survival time, higher = longer survival
Procedure, shortened: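 Mice carrying the transplanted tumor received test compound or vehicle. Survival was recorded in each group, and the value is the treated-group measurement divided by that of the vehicle-treated control group.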

[1] = dose: 50.0 mg/kg/injection, schedule: Q01DX009 (ip), vehicle: saline
[2] = dose: 100.0 mg/kg/injection, schedule: Q01DX009 (ip), vehicle: saline
[3] = dose: 200.0 mg/kg/injection, schedule: Q01DX009 (ip), vehicle: saline
[4] = dose: 50.0 mg/kg/injection, schedule: Q01DX005 (ip), vehicle: saline with Tween-80
[5] = dose: 100.0 mg/kg/injection, schedule: Q01DX005 (ip), vehicle: saline with Tween-80
[6] = dose: 100.0 mg/kg/injection, schedule: Q01DX005 (ip), vehicle: Klucel (hydroxypropylcellulose) (HPC)

Measured: T/C

CCCCCCCCCCCCCCCCCc1cccc(OC)c1
inactive: dose: 7.5 mg/kg/injection, schedule: Q01DX009 (ip), vehicle: saline with Tween-80 95 % of control | dose: 15.0 mg/kg/injection, schedule: Q01DX009 (ip), vehicle: saline with Tween-80 97 % of control | dose: 30.0 mg/kg/injection, schedule: Q01DX009 (ip), vehicle: saline with Tween-80 110 % of control

CP1(=O)CC2=C(CC2)C1
inactive: [1] 108 % of control | [2] 103 % of control | [3] 95 % of control

O=C1[N-]C(=S)c2cccn21.O=C1[N-]C(=S)c2cccn21.[Pd+2]
inactive: dose: 12.5 mg/kg/injection, schedule: Q01DX005 (ip), vehicle: saline with Tween-80 103 % of control | dose: 25.0 mg/kg/injection, schedule: Q01DX005 (ip), vehicle: saline with Tween-80 103 % of control | [4] 99 % of control | [5] 99 % of control

O=C(Nc1ccccc1)c1nn(-c2cc(S(=O)(=O)[O-])ccc2Cl)[n+](-c2ccccc2Cl)n1
inactive: dose: 60.0 mg/kg/injection, schedule: Q01DX005 (ip), vehicle: Klucel (hydroxypropylcellulose) (HPC) 101 % of control | dose: 120.0 mg/kg/injection, schedule: Q01DX005 (ip), vehicle: Klucel (hydroxypropylcellulose) (HPC) 101 % of control

CCC(C)([N+](=O)[O-])[N+](=O)[O-]
inactive: dose: 0.19 mg/kg/injection, schedule: Q01DX009 (ip), vehicle: Klucel (hydroxypropylcellulose) (HPC) 102 % of control | dose: 0.39 mg/kg/injection, schedule: Q01DX009 (ip), vehicle: Klucel (hydroxypropylcellulose) (HPC) 97 % of control | dose: 0.78 mg/kg/injection, schedule: Q01DX009 (ip), vehicle: Klucel (hydroxypropylcellulose) (HPC) 99 % of control and 96 % of control

N=C(N)c1ccc2[nH]c(/C=C/c3cc4cc(C(=N)N)ccc4o3)cc2c1
active: dose: 25.0 mg/kg/injection, schedule: Q04DX003 (ip), vehicle: suspension in saline 163 % of control | dose: 50.0 mg/kg/injection, schedule: Q04DX003 (ip), vehicle: suspension in saline 160 % of control | dose: 100.0 mg/kg/injection, schedule: Q04DX003 (ip), vehicle: suspension in saline 163 % of control

O=C1NN2CCCN=C2c2ncccc21
inactive: dose: 60.0 mg/kg/injection, schedule: Q01DX005 (ip), vehicle: saline with Tween-80 104 % of control | dose: 120.0 mg/kg/injection, schedule: Q01DX005 (ip), vehicle: saline with Tween-80 103 % of control | dose: 240.0 mg/kg/injection, schedule: Q01DX005 (ip), vehicle: saline with Tween-80 108 % of control

Cc1ccc2nc(N/N=C/c3cccs3)sc2c1
inactive: dose: 50.0 mg/kg/injection, schedule: Q01DX009 (ip), vehicle: Klucel (hydroxypropylcellulose) (HPC) 100 % of control | dose: 100.0 mg/kg/injection, schedule: Q01DX009 (ip), vehicle: Klucel (hydroxypropylcellulose) (HPC) 101 % of control | dose: 200.0 mg/kg/injection, schedule: Q01DX009 (ip), vehicle: Klucel (hydroxypropylcellulose) (HPC) 94 % of control

COc1cc(N=Nc2ccccc2)cc(/C=N\NC(=S)Nc2ccc(C)cc2)c1O
inactive: [4] 94 % of control | [5] 96 % of control

COc1cc(C2=N/C(=C/c3cccs3)C(=O)O2)cc(OC)c1OC
inactive: dose: 6.25 mg/kg/injection, schedule: Q01DX009 (ip), vehicle: Klucel (hydroxypropylcellulose) (HPC) 98 % of control | dose: 12.5 mg/kg/injection, schedule: Q01DX009 (ip), vehicle: Klucel (hydroxypropylcellulose) (HPC) 108 % of control | dose: 25.0 mg/kg/injection, schedule: Q01DX009 (ip), vehicle: Klucel (hydroxypropylcellulose) (HPC) 106 % of control

CCOC(=O)COc1cc2c(cc1C(C)c1ccc(OC)cc1)OCO2 (configuration not stated)
inactive: dose: 50.0 mg/kg/injection, schedule: Q01DX005 (ip), vehicle: Klucel (hydroxypropylcellulose) (HPC) 104 % of control | [6] 100 % of control | dose: 200.0 mg/kg/injection, schedule: Q01DX005 (ip), vehicle: Klucel (hydroxypropylcellulose) (HPC) 94 % of control

O=c1ncc2ccc([N+](=O)[O-])cc2[nH]1
inactive: dose: 12.5 mg/kg/injection, schedule: Q01DX005 (ip), vehicle: Klucel (hydroxypropylcellulose) (HPC) 108 % of control and 95 % of control and 98 % of control | dose: 25.0 mg/kg/injection, schedule: Q01DX005 (ip), vehicle: Klucel (hydroxypropylcellulose) (HPC) 102 % of control and 94 % of control and 98 % of control | [6] 112 % of control

O=C(CN1CCCCC1)Nc1ccc(Br)cc1
inactive: dose: 50.0 mg/kg/injection, schedule: Q01DX009 (ip), vehicle: saline with Tween-80 106 % of control | [1] 103 % of control and 113 % of control | dose: 100.0 mg/kg/injection, schedule: Q01DX009 (ip), vehicle: saline with Tween-80 100 % of control | [2] 105 % of control | dose: 200.0 mg/kg/injection, schedule: Q01DX009 (ip), vehicle: saline with Tween-80 111 % of control | [3] 120 % of control | dose: 400.0 mg/kg/injection, schedule: Q01DX009 (ip), vehicle: saline with Tween-80 102 % of control
